Experimental data: US20070292888A1, “Methods for Measuring Enzyme Activities in Cells, Blood, Tumors and Tissues” (GEN-PATH PHARMACEUTICALS, INC., priority 2004, published 2007)

Assays:
[1] = molecular target: T1, glucose-6-phosphate dehydrogenase (G6PDH) (Mus musculus, UniProt Q00612); experiment: Glucose-6-phosphate dehydrogenase activity in tissues of treated mice (fluorescence NADPH assay); assay type: in vivo; conditions: 11 days i.p. twice per day, various organs
T1 construct: from tissue; host or cells: mouse tumor, blood, brain, heart, kidney, liver, lung, spleen (crude lysates)
Procedure: Blood samples from mice were taken (40 μl whole blood) serially or from mice sacrificed at the end of the experiment. Tissues, such as tumors (e.g. from implantation, xenograft, or arising spontaneously), brain, heart, kidney, liver, lung and spleen were taken and flash frozen in liquid nitrogen or on dry ice and stored in −80° C. until time of assay. Four volumes of cold lysis buffer (20 mM HEPES, pH 7.5, 1 mM EDTA, 0.2 g/l Triton X-100® and 0.2 g/L sodium deoxycholate, supplemented with 1 mM DTT and 1 mM PMSF just before use) were added to the blood, which was dissolved by vortexing. For blood that was frozen before coagulation, a clear lysate was obtained. […]
Each reaction was monitored for the appearance of NADH (for transketolase, alpha-ketoglutarate dehydrogenase, pyruvate dehydrogenase) or NADPH (for glucose-6-phosphate dehydrogenase) at room temperature in a fluorescent plate reader with excitation at 340 nm and emission at 470 nm in kinetic mode. The velocity was determined by the slope of the initial linear range of increasing fluorescence, expressed in fluorescent units (FU)/min. The protein concentration in the lysate was determined using Bradford assays (BioRad) with BSA as a standard. […]
We measured enzyme activity in an expanded panel of tissues from mice treated with N3PT or OxyT for 11 days i.p., twice per day. […]

transketolase (TK) = molecular target: T2, transketolase (TK) (Mus musculus, UniProt P40142); experiment: Transketolase activity in blood, tumors and tissues of treated mice (fluorescence NADH assay); assay type: in vivo; conditions: 11 days i.p. twice per day
T2 construct: from tissue; host or cells: mouse blood, spleen, tumor, kidney, lung, liver (crude lysates)
T2 sequence (P40142 1-623): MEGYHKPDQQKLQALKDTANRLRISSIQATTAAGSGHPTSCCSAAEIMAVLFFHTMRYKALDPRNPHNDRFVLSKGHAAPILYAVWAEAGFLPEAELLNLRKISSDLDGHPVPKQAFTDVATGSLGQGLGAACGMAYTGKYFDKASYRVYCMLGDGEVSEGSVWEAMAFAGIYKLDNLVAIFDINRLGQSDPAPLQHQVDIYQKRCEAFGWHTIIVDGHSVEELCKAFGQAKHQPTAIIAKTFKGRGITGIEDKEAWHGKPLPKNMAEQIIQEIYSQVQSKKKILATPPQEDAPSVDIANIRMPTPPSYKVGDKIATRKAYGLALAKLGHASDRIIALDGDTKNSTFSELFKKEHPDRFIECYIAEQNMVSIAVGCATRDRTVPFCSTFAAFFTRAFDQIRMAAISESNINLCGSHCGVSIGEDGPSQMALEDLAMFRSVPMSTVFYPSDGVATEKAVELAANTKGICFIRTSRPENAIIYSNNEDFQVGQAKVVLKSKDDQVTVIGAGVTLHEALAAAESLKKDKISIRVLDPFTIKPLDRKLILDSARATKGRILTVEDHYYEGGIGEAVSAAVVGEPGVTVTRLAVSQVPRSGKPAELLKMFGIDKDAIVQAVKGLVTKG
Procedure: Blood samples from mice were taken (40 μl whole blood) serially or from mice sacrificed at the end of the experiment. Tissues, such as tumors (e.g. from implantation, xenograft, or arising spontaneously), brain, heart, kidney, liver, lung and spleen were taken and flash frozen in liquid nitrogen or on dry ice and stored in −80° C. until time of assay. Four volumes of cold lysis buffer (20 mM HEPES, pH 7.5, 1 mM EDTA, 0.2 g/l Triton X-100® and 0.2 g/L sodium deoxycholate, supplemented with 1 mM DTT and 1 mM PMSF just before use) were added to the blood, which was dissolved by vortexing. For blood that was frozen before coagulation, a clear lysate was obtained. If coagulation occurred, homogenization was used as described below for tissue. Tissues were suspended in lysis buffer in 10 ml round bottom tubes and homogenized with PowerGen 125® (Fisher Scientific) for four seconds at highest power while submerged in an ice-water bath. This step was repeated after a few seconds, as necessary. The lysate was used right away or else flash frozen and stored at −80° C. until assay time. Eighty microliters (80 μl) of lysate (containing 5 mg tissue/ml lysate for TK and kGDH, 0.5 mg/ml for G6PDH) were put directly in individual wells of a 96-well clear-bottomed assay plate. Twenty microliters (20 μl) of 5× reaction mix was added to initiate each enzymatic reaction.
Each reaction was monitored for the appearance of NADH (for transketolase, alpha-ketoglutarate dehydrogenase, pyruvate dehydrogenase) or NADPH (for glucose-6-phosphate dehydrogenase) at room temperature in a fluorescent plate reader with excitation at 340 nm and emission at 470 nm in kinetic mode. The velocity was determined by the slope of the initial linear range of increasing fluorescence, expressed in fluorescent units (FU)/min. The protein concentration in the lysate was determined using Bradford assays (BioRad) with BSA as a standard. The enzymatic velocity was normalized by the total protein concentration for inter-sample comparison. To obtain reliable results across samples, similar starting protein concentrations were prepared (within approximately 30%) so that the normalized velocity required only small adjustments. This was achieved by weighing the tissue and putting in lysis buffer so that the suspensions contained the same amount of tissue/ml lysis buffer for all samples.
For TK, 15 μl of 5× assay buffer containing final concentrations of 50 mM HEPES, 40 mM KCl, 2.5 mM MgCl2, 5 mM NaArsenate, 1 mM NAD, 2 unit/ml glyceraldehydes-3-phosphate dehydrogenase (GAPDH) was added to 80 μl of lysate. Reaction kinetics were monitored on a fluorescent plate reader to allow any possible background activity via GAPDH to burn out. Then 5 μl of substrate mix containing final concentrations of 0.5 mM ribose-5-phosphate and 0.5 mM xylulose-5-phosphate was added to initiate the reaction. The reaction kinetics were monitored using a fluorescent plate reader, and the slope of the initial linear range was recorded as the velocity of the reaction (FU/min). See FIG. 1 for the reaction scheme.
To investigate the amount of in vivo enzyme inhibition following treatment with an inhibitor, we administered a single dose of N3PT (100 mg/kg, intraperitoneally [i.p.]) and blood, spleen and brain samples were collected at various times from 0-120 hours after dosing. The enzymatic activities were determined as described in Example 1. TK activity was measured in blood and spleen. Because TK activity in the brain is below the detection limit of the assay, kGDH activity was measured in brain samples. Measurements were taken at various time intervals
We measured enzyme activity in an expanded panel of tissues from mice treated with N3PT or OxyT for 11 days i.p., twice per day. Samples were taken from tumors, blood, brain, heart, kidney, lung and spleen, and TK, kGDH and G6PDH activities were determined as described above.

T1 sequence (Q00612 whole entry): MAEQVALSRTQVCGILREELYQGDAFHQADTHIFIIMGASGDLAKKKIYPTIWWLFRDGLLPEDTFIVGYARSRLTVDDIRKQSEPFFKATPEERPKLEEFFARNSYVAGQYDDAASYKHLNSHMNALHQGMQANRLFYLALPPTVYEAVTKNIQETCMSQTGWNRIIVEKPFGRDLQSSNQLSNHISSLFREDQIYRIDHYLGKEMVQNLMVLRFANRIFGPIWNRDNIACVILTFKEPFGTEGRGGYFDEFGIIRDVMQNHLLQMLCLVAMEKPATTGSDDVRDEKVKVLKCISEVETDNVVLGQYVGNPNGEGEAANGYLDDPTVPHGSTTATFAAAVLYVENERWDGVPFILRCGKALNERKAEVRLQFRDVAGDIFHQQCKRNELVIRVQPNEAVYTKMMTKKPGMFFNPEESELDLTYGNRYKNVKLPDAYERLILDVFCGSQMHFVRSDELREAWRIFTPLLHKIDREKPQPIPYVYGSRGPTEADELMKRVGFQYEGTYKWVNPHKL

Cc1ncc(C[n+]2csc(CCO)c2C)c(=O)[nH]1 [OxyT, oxythiamine]
G6PDH enzymatic activity following treatment [1]: no significant decrease | percent inhibition of TK activity in tumors (transketolase (TK); 100 mg/kg, compared to vehicle control): 40% | liver enzymatic (TK) activity (transketolase (TK); liver): hardly affected
